The record followed here is ChEMBL document CHEMBL5665440, “ASAP - In vitro liver microsomal stability” (2024).

Where “and” joins values, the source holds several entries; their conditions need not be identical. Equal values may be shown once.

The nature of data set [1]: Human liver microsomal stability of compound in microsomal protein, PBS buffer pH 7.4, NADPH, glucose-6-phosphate and glucose-6-phosphate dehydrogenase media. Aliquotes were taken at 5 time points and after stopping the reaction, supernatants were analyzed using HPLC coupled with a tandem mass spectrometer. The elimination constant, half-life, and intrinsic clearance are determined as results using linear regression analysis. It counts as ADME, microsomes, Microsome. As to conditions: for half-life / microsomal CLint: liver microsomes. For orientation: Microsomes from liver hold many membrane-bound enzymes, among them those of drug oxidation.

Data set [2] in a line: Mouse liver microsomal stability of compound in microsomal protein, PBS buffer pH 7.4, NADPH, glucose-6-phosphate and glucose-6-phosphate dehydrogenase media. Aliquotes were taken at 5 time points and after stopping the reaction, supernatants were analyzed using HPLC coupled with a tandem mass spectrometer. The elimination constant, half-life, and intrinsic clearance are determined as results using linear regression analysis. As to conditions: for half-life / microsomal CLint: liver microsomes; for Remaining / Remaining (without cofactor): microsomes. It counts as ADME, microsomes, Microsome.
Wherever Remaining (without cofactor) is given: time not given here.
Wherever Remaining is given: time not given here.

On to `CC(C)NC(=O)[C@H](Nc1ccc2c(c1)CNC2)c1cc(Cl)cc2[nH]c(-c3ccccc3)nc12`, for which, in data set [1] (microsomes), the CLint was 23.218 µL/min/mg and < 10 µL/min/mg; the Remaining is 67.537% and 102.526%; the “Remaining (without cofactor)” value is 101.395% and 117.42%; the T1/2 was 1.199 h and > 2.888 h. In addition, in data set [2], the half-life (in general, the time in which the quantity being followed falls by half) was 2.52 h; the microsomal CLint – broadly, the capacity of the preparation to metabolise the compound, expressed as a volume cleared per time – worked out at 11 µL/min/mg; the Remaining is 84%; the “Remaining (without cofactor)” value worked out at 98.417%.

For the compound `CSc1cc2c(cc1NC(=O)c1cc(F)cc3[nH]ncc13)CNC2`, in data set [1], the half-life is more than 2.89 h and the microsomal CLint was less than 10 µL/min/mg. For the same compound, in data set [1] (microsomes), the Remaining amounted to 88.673% and the “Remaining (without cofactor)” value is on record as 103.344%. Besides, in data set [2], the half-life worked out at 0.212 h, the microsomal CLint worked out at 131 µL/min/mg, the Remaining was 11.381% and the “Remaining (without cofactor)” value is 93.133%.

In data set [1], `CNC(=O)c1cc(Br)cc([C@H](Nc2ccc3c(c2)CNC3)C(=O)NCC(F)F)c1` gave a half-life of more than 2.89 h and a microsomal CLint of less than 10 µL/min/mg. Also, in data set [1] (microsomes), the Remaining is given as 96.629% and the “Remaining (without cofactor)” value amounted to 106.229%. In data set [2], the half-life was more than 2.89 h, the microsomal CLint was less than 10 µL/min/mg, the Remaining came to 92.112% and the “Remaining (without cofactor)” value came to 95.032%.

Turning to `Nc1ccncc1-c1cc(F)cc(C(=O)Nc2ccc3c(c2)CNC3)c1`, in data set [1], the half-life is more than 2.89 h and the microsomal CLint was less than 10 µL/min/mg. In addition, in data set [1] (microsomes), the Remaining was determined as 84.663% and the “Remaining (without cofactor)” value is reported as 102.026%. Also, in data set [2], the half-life is more than 2.89 h, the microsomal CLint was less than 10 µL/min/mg, the Remaining is on record as 87.356% and the “Remaining (without cofactor)” value turned out to be 106.991%.
